Test [1] has as its target T1, human JAK2 (a.a. 828-1132) (Homo sapiens, UniProt O60674).
T1 construct: JAK2 (a.a. 828-1132); His tag (N); made in house; host or cells: insect cells (baculovirus)
In words: In vitro JAK kinase assay (HTRF), JAK2. It counts as biochemical. As to conditions: IC50 ratio, selectivity for JAK1 over JAK2, 1 mM ATP. The method, then:
(§1) Compounds herein were tested for inhibitory activity of JAK targets according to the following in vitro assay described in Park et al., Analytical Biochemistry 1999, 269, 94-104. The catalytic domains of human JAK1 (a.a. 837-1142), JAK2 (a.a. 828-1132) and JAK3 (a.a. 781-1124) with an N-terminal His tag were expressed using baculovirus in insect cells and purified. The catalytic activity of JAK1, JAK2 or JAK3 was assayed by measuring the phosphorylation of a biotinylated peptide. The phosphorylated peptide was detected by homogenous time resolved fluorescence (HTRF). […] Reactions were carried out at room temperature for 1 hour and then stopped with 20 μL 45 mM EDTA, 300 nM SA-APC, 6 nM Eu-Py20 in assay buffer (Perkin Elmer, Boston, Mass.). Binding to the Europium labeled antibody took place for 40 minutes and HTRF signal was measured on a Fusion plate reader (Perkin Elmer, Boston, Mass.). See Table 2 for data for compounds of the examples as tested by the assay of Example A at 1 mM ATP.

For test [2], the target named is T2, human JAK1 (a.a. 837-1142) (Homo sapiens, UniProt P23458).
T2 construct: human JAK1 (a.a. 837-1142); His tag (N); made in house; host or cells: insect cells (baculovirus)
Nature of the test: In vitro JAK kinase assay (HTRF), JAK1. The format is biochemical. As to conditions: 1 mM ATP. As for the experimental part: as §1, with “Mass.).” for “Mass.). See Table 2 for data for compounds of the examples as tested by the assay of Example A at 1 mM ATP.”
For orientation: Time-resolved FRET reads energy transfer from a long-lived donor to a nearby acceptor.

Test [3] relates to MDS patients. As to conditions: 83 patients enrolled, 51 completed 12 weeks of therapy; cited from earlier work.
The test system of test [4] is MDS patients. As to conditions: study of 14 MDS patients; cited from earlier work.

T2 sequence (P23458 849-1154): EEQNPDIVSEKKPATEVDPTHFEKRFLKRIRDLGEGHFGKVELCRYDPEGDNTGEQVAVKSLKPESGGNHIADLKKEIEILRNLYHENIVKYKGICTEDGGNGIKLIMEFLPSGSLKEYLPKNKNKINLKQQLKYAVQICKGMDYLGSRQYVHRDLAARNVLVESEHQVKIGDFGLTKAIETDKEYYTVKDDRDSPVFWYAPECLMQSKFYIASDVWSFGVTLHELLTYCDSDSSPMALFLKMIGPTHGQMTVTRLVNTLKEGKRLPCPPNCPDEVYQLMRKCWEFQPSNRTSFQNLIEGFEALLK
T1 sequence (O60674 828-1132): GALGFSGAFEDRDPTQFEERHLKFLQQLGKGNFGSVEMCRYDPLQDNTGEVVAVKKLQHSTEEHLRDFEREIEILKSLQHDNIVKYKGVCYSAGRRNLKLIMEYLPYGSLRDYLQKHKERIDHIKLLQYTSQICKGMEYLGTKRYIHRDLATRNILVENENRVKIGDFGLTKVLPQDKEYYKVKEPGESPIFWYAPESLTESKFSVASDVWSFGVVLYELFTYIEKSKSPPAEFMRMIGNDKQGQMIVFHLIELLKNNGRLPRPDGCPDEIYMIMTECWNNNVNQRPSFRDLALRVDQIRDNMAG

In the case of `C[C@@H](O)CNCc1cc(OC2CCN([C@H]3C[C@](CC#N)(n4cc(-c5ncnc6[nH]ccc56)cn4)C3)CC2)nc(C(F)(F)F)c1` [Example 22, {trans-3-(4-{[4-({[(2R)-2-hydroxypropyl]amino}methyl)-6-(trifluoromethyl)pyridin-2-yl]oxy}piperidin-1-yl)-1-[4-(7H-pyrrolo[2,3-d]pyrimidin-4-yl)-1H-pyrazol-1-yl]cyclobutyl}acetonitrile], the JAK2/JAK1 in test [1] is listed as above 10. Moreover, in test [2], the IC50 (in general, the concentration needed to halve the response being measured) is below 10 nM.
In the case of `C[C@H](O)CNCc1cc(OC2CCN([C@H]3C[C@](CC#N)(n4cc(-c5ncnc6[nH]ccc56)cn4)C3)CC2)nc(C(F)(F)F)c1` [Example 23, {trans-3-(4-{[4-({[(2S)-2-hydroxypropyl]amino}methyl)-6-(trifluoromethyl)pyridin-2-yl]oxy}piperidin-1-yl)-1-[4-(7H-pyrrolo[2,3-d]pyrimidin-4-yl)-1H-pyrazol-1-yl]cyclobutyl}acetonitrile], the JAK2/JAK1 in test [1] is recorded as above 10. In test [2], this compound had an IC50 below 10 nM.
For the compound `N#CC[C@]1(n2cc(-c3ncnc4[nH]ccc34)cn2)C[C@H](N2CCC(Oc3cc(CCO)cc(C(F)(F)F)n3)CC2)C1` [Example 24, {trans-3-(4-{[4-(2-hydroxyethyl)-6-(trifluoromethyl)pyridin-2-yl]oxy}piperidin-1-yl)-1-[4-(7H-pyrrolo[2,3-d]pyrimidin-4-yl)-1H-pyrazol-1-yl]cyclobutyl}acetonitrile], the JAK2/JAK1 in test [1] was above 10. For the same compound, in test [2], the IC50 is below 10 nM.
Regarding `O=C1CCC(N2C(=O)c3ccccc3C2=O)C(=O)N1` (stereo not shown) [thalidomide], in the test on MDS patients [3], the “patients showed hematologic improvement” value is reported as 16 patients and the “previously transfusion-dependent patients becoming transfusion independent” value was 10 patients.
For the compound etanercept, in the test on MDS patients [4], the erythroid hematologic improvement is reported as 25 % of patients; the “improvement in platelet counts and ANC” value is on record as 12.5 % of evaluable patients.

Values taken from patent US20220378791A1, “JAK1 INHIBITORS FOR THE TREATMENT OF MYELODYSPLASTIC SYNDROMES” (Incyte Corporation, priority 2014, published 2022).
